Test systems include NCI-H23; NCI-H226; SK-OV-3; UO-31; NCI-H460; LOX IMVI; TK-10; KM12; SK-MEL-5; OVCAR-4; COLO 205; HCT-116; SN12C; DU-145; SF-268; OVCAR-5; HCT-15; CAKI-1; SNB-19; A549.
What all share (assay): inhibition of tumour cell growth, NCI panel, 48 h

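Interpolation was linear, between the two tested concentrations surrounding the appropriate level; five concentrations were tested over 48 hours in 96-well plates. GI50 marks 50% less growth.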 The source made the active and inactive calls. Rule as the data show it: active = GI50 up to about 1.1 µM and inactive = higher. Bounds are passed on as bounds.

In the case of `CC(C)c1nc(Cl)c(Cl)c(Cl)n1`, the GI50 in the test on NCI-H23 is 4.06 µM (inactive); in the test on NCI-H226 it was 17.7 µM (inactive); in the test with SK-OV-3, 17.7 µM (inactive); with UO-31, 1.19 µM (inactive); in the test with NCI-H460 it was 12.6 µM (inactive); in the test on LOX IMVI it was 0.246 µM (active). Besides, the GI50 with TK-10 is 11.4 µM (inactive); with KM12, 8.39 µM (inactive); with SK-MEL-5 it was 16.2 µM (inactive); with OVCAR-4 it was 15.5 µM (inactive); with COLO 205, 2.71 µM (inactive); with HCT-116, 1.33 µM (inactive). Also, the GI50 with SN12C was 4.24 µM (inactive); in the test with DU-145 it was 7.69 µM (inactive); in the test on SF-268, 1.91 µM (inactive); with OVCAR-5, 5.77 µM (inactive); with HCT-15, 0.695 µM; with CAKI-1, 2.09 µM (inactive). Further, the GI50 with SNB-19 is 18.6 µM (inactive); in the test on A549, 2.58 µM (inactive).
On to `CCCc1c(O)c(=O)c2c(OC)cc(OC)c3c4c(OC)cc(OC)c5c(=O)c(O)c(CCC)c(c1c23)c54`, for which the GI50 is 0.474 µM (active) with NCI-H23; 1.63 µM (inactive) in the test with NCI-H226; 0.342 µM (active) with SK-OV-3; 0.404 µM (active) in the test on UO-31; 0.301 µM (active) with NCI-H460; 0.338 µM (active) in the test with LOX IMVI. The GI50 in the test on TK-10 was 1.9 µM (inactive); in the test with KM12 it was 0.458 µM (active); in the test with SK-MEL-5, 0.533 µM (active); in the test on OVCAR-4, 2.56 µM (inactive); in the test on COLO 205 it was 2.44 µM (inactive); with HCT-116, 0.299 µM (active). The GI50 in the test with SN12C is 1.76 µM (inactive); in the test with DU-145, 0.37 µM (active); in the test with SF-268, 0.714 µM (active); in the test on OVCAR-5 it was 2.13 µM (inactive); in the test on HCT-15, 0.746 µM; with CAKI-1 it was 0.394 µM (active). The GI50 in the test with SNB-19 is 0.351 µM (active); with A549, 0.386 µM (active).
Regarding `CCCC/C=C/C/C=C/CCCCCCCCC(=O)OCC1CCCN2CCCCC12` (stereo not given), the GI50 with NCI-H23 was > 100 µM (inactive); in the test on NCI-H226, > 100 µM (inactive); in the test with SK-OV-3, > 100 µM (inactive); in the test on UO-31, 59.4 µM (inactive); in the test on NCI-H460, > 100 µM (inactive); with LOX IMVI, 76.9 µM (inactive). In addition, the GI50 in the test with TK-10 was > 100 µM (inactive); in the test with KM12 it was > 100 µM (inactive); in the test with SK-MEL-5, > 100 µM (inactive); in the test on OVCAR-4, 79.8 µM (inactive); in the test with COLO 205, 93.3 µM (inactive); with HCT-116, > 100 µM (inactive). In addition, the GI50 was > 100 µM (inactive) in the test on SN12C; > 100 µM (inactive) in the test with DU-145; > 100 µM (inactive) in the test with SF-268; > 100 µM (inactive) in the test on OVCAR-5; > 100 µM in the test with HCT-15; 31 µM (inactive) in the test with CAKI-1. Besides, the GI50 with SNB-19 and with A549 was > 100 µM (inactive) throughout.
For `O=c1c(Cl)nsnc1Cl`, the GI50 in the test with NCI-H23 is 23.3 µM (inactive); with NCI-H226, 22.9 µM (inactive); with SK-OV-3, 19.1 µM (inactive); in the test with UO-31, 6.4 µM (inactive); with NCI-H460 it was 29.3 µM (inactive); with LOX IMVI it was 9.23 µM (inactive). The GI50 was 2.57 µM (inactive) in the test on TK-10; > 38.7 µM (inactive) in the test with KM12; 16.5 µM (inactive) in the test on SK-MEL-5; 5.15 µM (inactive) in the test with OVCAR-4; 1.83 µM (inactive) with COLO 205; 7.01 µM (inactive) in the test with HCT-116. Also, the GI50 with SN12C was 20.2 µM (inactive); in the test on DU-145 it was 17.3 µM (inactive); with SF-268 it was 26.4 µM (inactive); in the test with OVCAR-5, 20.1 µM (inactive); in the test with HCT-15 it was 17.5 µM; with CAKI-1 it was 4.26 µM (inactive). Further, the GI50 is 23.4 µM (inactive) in the test with SNB-19 and 26.3 µM (inactive) in the test on A549.
`O=C(/C=C1\Nc2ccccc2N=C1NC12CC3CC(CC(C3)C1)C2)c1ccc(Br)cc1`: the GI50 with NCI-H23, in the test with NCI-H226, in the test with SK-OV-3, in the test on UO-31, with NCI-H460 and with LOX IMVI was > 10 µM (inactive) in each case. Moreover, the GI50 in the test on TK-10, in the test with KM12, in the test with SK-MEL-5, in the test on OVCAR-4, with COLO 205 and in the test with HCT-116 was > 10 µM (inactive) each time. For the same compound, the GI50 was > 10 µM (inactive) in the test on SN12C; > 10 µM (inactive) in the test with DU-145; > 10 µM (inactive) with SF-268; > 10 µM (inactive) with OVCAR-5; > 10 µM with HCT-15; > 10 µM (inactive) in the test on CAKI-1. The GI50 in the test with SNB-19 and with A549 was > 10 µM (inactive) each time.
On to `COC(=O)c1ccc(C)cc1CC1Cc2c(C)cccc2C1=O` (stereo not given), for which the GI50 was 12.4 µM (inactive) in the test on NCI-H23; 13.7 µM (inactive) in the test with NCI-H226; 6.21 µM (inactive) in the test on SK-OV-3; 15.9 µM (inactive) with UO-31; 17.8 µM (inactive) in the test on NCI-H460; 8.09 µM (inactive) with LOX IMVI. Further, the GI50 in the test with TK-10 is 11.5 µM (inactive); with KM12 it was 3.4 µM (inactive); with SK-MEL-5, 5.82 µM (inactive); in the test on OVCAR-4 it was 25.5 µM (inactive); in the test with COLO 205, 5.69 µM (inactive); in the test with HCT-116, 3.58 µM (inactive). Besides, the GI50 with SN12C is 6.62 µM (inactive); with DU-145 it was 29.4 µM (inactive); with SF-268, 9.89 µM (inactive); with OVCAR-5, 34.4 µM (inactive); in the test with HCT-15 it was 3.05 µM; in the test on CAKI-1, 6.4 µM (inactive). For the same compound, the figures for the GI50 in the test with SNB-19 and in the test with A549 were 9.89 µM (inactive) and 7.57 µM (inactive), respectively.
With `CC(C)COC(c1ccc2c(c1)OCO2)C(C)Br` (stereo not given), the GI50 with NCI-H23 was 26.2 µM (inactive); in the test with NCI-H226 it was 26.4 µM (inactive); with SK-OV-3, 24.1 µM (inactive); in the test on UO-31, 22.5 µM (inactive); in the test on NCI-H460, 20 µM (inactive); with LOX IMVI it was 17.4 µM (inactive). Further, the GI50 in the test with TK-10 was 30.9 µM (inactive); with KM12 it was 22.9 µM (inactive); with SK-MEL-5, 18.7 µM (inactive); in the test on OVCAR-4, 34.1 µM (inactive); in the test on COLO 205 it was 22.6 µM (inactive); in the test with HCT-116 it was 17.2 µM (inactive). Besides, the GI50 in the test with SN12C was 20.7 µM (inactive); with DU-145, 33.1 µM (inactive); in the test with SF-268, 25.2 µM (inactive); in the test on OVCAR-5, 19.7 µM (inactive); in the test with HCT-15, 23.3 µM; in the test with CAKI-1 it was 30.3 µM (inactive). Moreover, the results for the GI50 in the test with SNB-19 and in the test on A549 were 33.7 µM (inactive) and 29.1 µM (inactive), respectively.
For the compound `CN(C)CC1CCCC(CN2CCCCC2)C1=O` (stereo not given), the GI50 is 17.9 µM (inactive) with NCI-H23; 20.6 µM (inactive) in the test on NCI-H226; > 62.7 µM (inactive) with SK-OV-3; 17.2 µM (inactive) in the test on UO-31; > 55.8 µM (inactive) in the test on NCI-H460; 8.26 µM (inactive) in the test on LOX IMVI. Further, the GI50 in the test with TK-10 was 8.73 µM (inactive); in the test on KM12, 19.4 µM (inactive); in the test on SK-MEL-5, 18.7 µM (inactive); in the test with OVCAR-4 it was 4.25 µM (inactive); in the test with COLO 205 it was 3.08 µM (inactive); in the test with HCT-116 it was 3.01 µM (inactive). Besides, the GI50 with SN12C was 8.32 µM (inactive); in the test on DU-145 it was 18.2 µM (inactive); in the test with SF-268 it was 19.5 µM (inactive); in the test with OVCAR-5, 31.4 µM (inactive); in the test on HCT-15, 8.83 µM; in the test with CAKI-1, 1.53 µM (inactive). Besides, the GI50 is > 88.3 µM (inactive) in the test on SNB-19 and > 62.1 µM (inactive) in the test with A549.
In the case of `O=C1NC(Nc2cccc(Cl)c2)=N/C1=C\c1ccc(Cl)c(Cl)c1`, the GI50 in the test on NCI-H23 was 3.44 µM (inactive); with NCI-H226, 3.44 µM (inactive); in the test with SK-OV-3, 12.4 µM (inactive); with UO-31 it was 7.29 µM (inactive); in the test with NCI-H460, 2.24 µM (inactive); in the test with LOX IMVI, 2.14 µM (inactive). Moreover, the GI50 is 9.35 µM (inactive) in the test with TK-10; 3.37 µM (inactive) in the test with KM12; 6.18 µM (inactive) in the test on SK-MEL-5; 1.9 µM (inactive) in the test with OVCAR-4; 3.88 µM (inactive) in the test with COLO 205; 3.94 µM (inactive) with HCT-116. Moreover, the GI50 in the test with SN12C was 2.54 µM (inactive); in the test with DU-145 it was 7.52 µM (inactive); in the test on SF-268, 4.94 µM (inactive); with OVCAR-5, 7.91 µM (inactive); with HCT-15 it was 5.28 µM; with CAKI-1, 4.6 µM (inactive). Further, the GI50 in the test on SNB-19 is 7.74 µM (inactive); with A549 it was 3.8 µM (inactive).
With `O=C1C(=C2SC(c3ccccc3)(c3ccccc3)c3ccccc32)C(=O)c2ccccc21`, the GI50 in the test with NCI-H23, with NCI-H226, in the test on SK-OV-3, with UO-31, in the test on NCI-H460 and in the test on LOX IMVI was > 100 µM (inactive) each time. Moreover, the GI50 in the test on TK-10, in the test on KM12, in the test with SK-MEL-5, in the test with OVCAR-4, in the test with COLO 205 and in the test on HCT-116 was > 100 µM (inactive) throughout. Besides, the GI50 is > 100 µM (inactive) with SN12C; > 100 µM (inactive) in the test with DU-145; > 100 µM (inactive) in the test on SF-268; > 100 µM (inactive) in the test on OVCAR-5; > 100 µM in the test with HCT-15; > 100 µM (inactive) with CAKI-1. The GI50 in the test with SNB-19 and with A549 was > 100 µM (inactive) throughout.

These data come from ChEMBL document CHEMBL1201862, “PubChem BioAssay data set” (2004).
